Results on one molecule are retold here after article PMC3304435 (Biochemistry, 2012).

This assay concerns the target Escherichia coli RtcB ligase (Escherichia coli, UniProt P46850). Type of assay: biochemical. The settings on record: Mn2+; 3′-P / 5′-OH tRNA-mimic RNA substrate; estimated upper limit.

Escherichia coli RtcB ligase, sequence (P46850 whole entry): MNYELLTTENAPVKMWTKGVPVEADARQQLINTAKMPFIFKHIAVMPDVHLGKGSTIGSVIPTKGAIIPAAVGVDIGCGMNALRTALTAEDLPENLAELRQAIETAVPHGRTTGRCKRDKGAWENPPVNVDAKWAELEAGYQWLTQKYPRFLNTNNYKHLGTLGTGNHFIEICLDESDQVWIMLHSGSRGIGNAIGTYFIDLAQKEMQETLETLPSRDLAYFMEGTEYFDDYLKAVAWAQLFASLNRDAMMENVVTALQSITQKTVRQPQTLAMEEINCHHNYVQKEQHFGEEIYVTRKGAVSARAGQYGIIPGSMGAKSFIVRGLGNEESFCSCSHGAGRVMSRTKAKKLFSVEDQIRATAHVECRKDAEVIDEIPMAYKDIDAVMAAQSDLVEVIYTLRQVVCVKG

Turning to `Nc1nc2c(ncn2[C@@H]2O[C@H](COP(=O)(O)OP(=O)(O)OP(=O)(O)O)[C@@H](O)[C@H]2O)c(=O)[nH]1` [GTP], the Km (as a rule, the concentration of substrate that gives half-maximal velocity) is less than 16 µM.
